Values of other authors in patent publication US20050042196A1, “Antimicrobial phenol containing cyanoacrylate compositions” (priority 2003, published 2005).

Conditions: aqueous

SMILES: [O-][Cl+3]([O-])([O-])O [perchloric acid]
- pKa: −5
